The test concerns serum lipids and serum lipid hydroperoxide. Put plainly: Pharmacological test method A for anti-hyperlipidemic activity (serum lipids, 2 weeks feeding). Conditions: for AI [(TC - HDL-C)/(HDL-C)] / HDL-C in serum / LPO in serum / PL in serum / TC in serum / TG in serum: 1% in hyperlipidemic diet, 2 weeks. The test is classed as in vivo, male Wistar strain rats. Summed up: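 Serum TC, HDL-C (heparin precipitation), PL, TG and LPO measured by colorimetric kits, largely at 500 nm, from abdominal aorta blood after 16 h fasting. Rats (male Wistar, 10/group) ate a cholesterol/cholic acid diet 10 g/day for 2 weeks, supplemented with 1% each of three cycloartane triterpenoids.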

In the case of `C=C(CCC(C)C1CCC2(C)C3CCC4C(C)(C)C(OC(=O)C=Cc5cccc(N)c5)CCC45CC35CCC12C)C(C)C` (centres unmarked) [Example 112, 24-methylenecycloartanyl ester of m-aminocinnamic acid], the “AI [(TC - HDL-C)/(HDL-C)]” value is given as 3.624, the HDL-C in serum is 46.8 mg/dL, the LPO in serum worked out at 2.16 nmol/mL and the PL in serum was 150.4 mg/dL. For the same molecule, the TC in serum came to 216.4 mg/dL and the TG in serum was found to be 28.5 mg/dL. Moreover, under “versus control group”, the “AI % of diff.” value was -53.8%, the “AI Diff.” value is reported as -4.216, the “HDL-C % of diff.” value is reported as “+26.8%” and the “HDL-C Diff.” value was “+9.9 mg/dl”. Also, for the setting “versus control group”, the “LPO % of diff.” value is on record as -22.9%, the “LPO Diff.” value is -0.64 nmol/mL, the “PL Diff.” value is -15.2 mg/dL and the “TC % of diff.” value is reported as -33.7%. Also, for the setting “versus control group”, the “TC Diff.” value was -109.8 mg/dL, the “TG % of diff.” value is listed as -16.2% and the “TG Diff.” value was -5.5 mg/dL.

`CC(C)=CCCC(C)C1CCC2(C)C3CCC4C(C)(C)C(OC(=O)c5ccc(N)cc5)CCC45CC35CCC12C` (centres unmarked) [Example 19, cycloartenyl-p-aminobenzoate]: the “AI [(TC - HDL-C)/(HDL-C)]” value came out at 0.699, the HDL-C in serum was 91.9 mg/dL, the LPO in serum stood at 1.63 nmol/mL and the PL in serum is 153.6 mg/dL. The same molecule came in with a TC in serum of 156.1 mg/dL and a TG in serum of 31.6 mg/dL. For the same molecule, under “versus control group”, the “AI % of diff.” value is on record as -42.8%, the “AI Diff.” value is reported as -0.523, the “HDL-C % of diff.” value is on record as “+6.2%” and the “HDL-C Diff.” value is “+5.4 mg/dl”. Further, where the note is “versus control group”, the “LPO % of diff.” value is -27.2%, the “LPO Diff.” value was -0.61 nmol/mL, the “PL % of diff.” value is recorded as -11.0% and the “PL Diff.” value is -19.0 mg/dL. Moreover, for the setting “versus control group”, the “TC % of diff.” value was -18.8%, the “TC Diff.” value is -36.1 mg/dL, the “TG % of diff.” value is reported as -12.9% and the “TG Diff.” value is -4.7 mg/dL.

`CC(C)=CCCC(C)C1CCC2(C)C3CCC4C(C)(C)C(OC(=O)c5ccccc5[N+](=O)[O-])CCC45CC35CCC12C` (centres unmarked) [Example 16, cycloartenyl-o-nitrobenzoate]: the “AI [(TC - HDL-C)/(HDL-C)]” value is 1.529, the HDL-C in serum was 59.4 mg/dL, the LPO in serum is 2.04 nmol/mL and the PL in serum was found to be 140.1 mg/dL. For the same molecule, the TC in serum worked out at 150.2 mg/dL and the TG in serum was determined as 22.0 mg/dL. In addition, for the setting “versus control group”, the “AI % of diff.” value is -17.2%, the “AI Diff.” value is -0.318, the “HDL-C % of diff.” value was “+1.2%” and the “HDL-C Diff.” value is listed as “+0.7 mg/dl”. Further, under “versus control group”, the “LPO % of diff.” value is given as -12.8%, the “LPO Diff.” value is -0.30 nmol/mL, the “PL % of diff.” value is -5.6% and the “PL Diff.” value was -8.3 mg/dL. In addition, under “versus control group”, the “TC % of diff.” value was -10.1%, the “TC Diff.” value is -16.9 mg/dL, the “TG % of diff.” value is on record as -11.3% and the “TG Diff.” value was -2.8 mg/dL.

Consider “cycloartenyl-3,4-diacetoxycinnamate [Example 1]”, for which the “AI [(TC - HDL-C)/(HDL-C)]” value was 1.410, the HDL-C in serum came to 72.0 mg/dL, the LPO in serum is 2.03 nmol/mL and the PL in serum was 173.7 mg/dL. Besides, the TC in serum came to 173.5 mg/dL and the TG in serum stood at 38.0 mg/dL. In addition, the “AI Diff.” value (Table 2, versus control group) is -1.107 mg/dL. In addition, where the note is “versus control group”, the “AI % of diff.” value is -7.1%, the “HDL-C % of diff.” value is on record as -11.6%, the “HDL-C Diff.” value was -9.5 mg/dL and the “LPO % of diff.” value is on record as -10.6%. Also, where the note is “versus control group”, the “LPO Diff.” value is -0.24 nmol/mL, the “PL % of diff.” value is listed as “+0.06%”, the “PL Diff.” value is recorded as “+0.1 mg/dl” and the “TC % of diff.” value is -15.4%. In addition, where the note is “versus control group”, the “TC Diff.” value is -31.6 mg/dL, the “TG % of diff.” value is listed as “+10.9%” and the “TG Diff.” value is on record as “+3.7 mg/dl”.

With `CC(C)=CCCC(C)C1CCC2(C)C3CCC4C(C)(C)C(OC(=O)C=Cc5ccc([N+](=O)[O-])cc5)CCC45CC35CCC12C` (centres unmarked) [Example 101, cycloartenyl ester of p-nitro cinnamic acid], the “AI [(TC - HDL-C)/(HDL-C)]” value came to 3.668, the HDL-C in serum was 46.4 mg/dL, the LPO in serum turned out to be 2.12 nmol/mL and the PL in serum amounted to 150.7 mg/dL. The molecule further gave a TC in serum of 216.6 mg/dL and a TG in serum of 28.2 mg/dL. In addition, under “versus control group”, the “AI % of diff.” value is given as -53.2%, the “AI Diff.” value is listed as -4.172, the “HDL-C % of diff.” value is reported as “+25.7%” and the “HDL-C Diff.” value was “+9.5 mg/dl”. Also, for the setting “versus control group”, the “LPO % of diff.” value is -24.3%, the “LPO Diff.” value was -0.68 nmol/mL, the “PL % of diff.” value was -9.0% and the “PL Diff.” value was -14.9 mg/dL. For the same molecule, for the setting “versus control group”, the “TC % of diff.” value is -33.6%, the “TC Diff.” value was -109.6 mg/dL, the “TG % of diff.” value is recorded as -17.1% and the “TG Diff.” value is -5.8 mg/dL.

In the case of `COc1cc(C=CC(=O)OC2CCC34CC35CCC3(C)C(C(C)CCC(C)=C(C)C)CCC3(C)C5CCC4C2(C)C)ccc1O` (centres unmarked) [Example 100-2, cyclobranyl-4-hydroxy-3-methoxycinnamate], the “AI [(TC - HDL-C)/(HDL-C)]” value amounted to 0.772, the HDL-C in serum was 94.1 mg/dL, the LPO in serum worked out at 1.59 nmol/mL and the PL in serum was 143.0 mg/dL. This molecule returned a TC in serum of 166.7 mg/dL and a TG in serum of 21.6 mg/dL. Under “versus control group”, the “AI % of diff.” value is -49.1%, the “AI Diff.” value was -0.745, the “HDL-C % of diff.” value was “+18.5%” and the “HDL-C Diff.” value is on record as “+15.1 mg/dl”. For the same molecule, for the setting “versus control group”, the “LPO % of diff.” value is listed as -29.8%, the “LPO Diff.” value is -0.68 nmol/mL, the “PL % of diff.” value is -17.6% and the “PL Diff.” value is -30.6 mg/dL. Under “versus control group”, the “TC % of diff.” value was -18.7%, the “TC Diff.” value was -38.4 mg/dL, the “TG % of diff.” value is -37.0% and the “TG Diff.” value is -12.7 mg/dL.

`COc1cc(C(=O)OC2CCC34CC35CCC3(C)C(C(C)CCC(C)=C(C)C)CCC3(C)C5CCC4C2(C)C)ccc1O` (centres unmarked) [Example 37, cyclobranyl-4-hydroxy-3-methoxybenzoate]: the “AI [(TC - HDL-C)/(HDL-C)]” value was determined as 0.460, the HDL-C in serum is 110.4 mg/dL, the LPO in serum came to 1.91 nmol/mL and the PL in serum was 155.4 mg/dL. The TC in serum was 161.2 mg/dL and the TG in serum was 31.0 mg/dL. For the setting “versus control group”, the “AI % of diff.” value was -54.1%, the “AI Diff.” value is reported as -0.542, the “HDL-C % of diff.” value is listed as “+14.8%” and the “HDL-C Diff.” value is given as “+14.2 mg/dl”. Besides, under “versus control group”, the “LPO % of diff.” value is -18.0%, the “LPO Diff.” value is -0.42 nmol/mL, the “PL % of diff.” value is given as -14.1% and the “PL Diff.” value is -25.5 mg/dL. For the setting “versus control group”, the “TC % of diff.” value is recorded as -16.3%, the “TC Diff.” value was -31.4 mg/dL, the “TG % of diff.” value is -6.6% and the “TG Diff.” value was -2.2 mg/dL.

As for “Cycloartenyl-3,4-dipropionyloxycinnamate [Example 3]”, the “AI [(TC - HDL-C)/(HDL-C)]” value came to 1.605, the HDL-C in serum was determined as 76.8 mg/dL, the LPO in serum amounted to 2.40 nmol/mL and the PL in serum stood at 167.0 mg/dL. The molecule also gave a TC in serum of 200.1 mg/dL and a TG in serum of 33.3 mg/dL. In addition, where the note is “Table 2, versus control group”, the “AI Diff.” value is listed as “+0.088 mg/dl”. In addition, for the setting “versus control group”, the “AI % of diff.” value was “+5.8%”, the “HDL-C % of diff.” value is given as -5.8%, the “HDL-C Diff.” value was -4.7 mg/dL and the “LPO % of diff.” value is listed as “+5.8%”. Moreover, where the note is “versus control group”, the “LPO Diff.” value is given as “+0.13 nmol/ml”, the “PL % of diff.” value is on record as -3.8%, the “PL Diff.” value is -6.6 mg/dL and the “TC % of diff.” value is -2.4%. In addition, under “versus control group”, the “TC Diff.” value is -5.0 mg/dL, the “TG % of diff.” value is on record as -2.9% and the “TG Diff.” value was -1.0 mg/dL.

The record behind these values is patent US4748161A, “Triterpenyl esters of organic acids and hypolipidemic agents composed of them” (Amano Pharmaceutical Co., Ltd., priority 1984, dated 1988).
